According to PubChem BioAssay (NCI):
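Assay format: 96-well plates, 48-hour exposure. Definition used: TGI = concentration required for complete inhibition of growth.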

How the values were obtained:
Assay in all cases: DTP human tumour cell line panel, 48 h
DLD-1 colon = test system: DLD-1 colon
DMS 114 small cell lung = test system: DMS 114 small cell lung
DMS 273 small cell lung = test system: DMS 273 small cell lung
HOP-18 NSCLC = test system: HOP-18 NSCLC
KM12 colon = test system: KM12 colon
KM20L2 colon = test system: KM20L2 colon
LXFL 529 NSCLC = test system: LXFL 529 NSCLC
M19-MEL melanoma = test system: M19-MEL melanoma
SNB-78 CNS = test system: SNB-78 CNS
SW-620 colon = test system: SW-620 colon
XF 498 CNS = test system: XF 498 CNS
RXF-631 renal = test system: RXF-631 renal
HS 578T breast = test system: HS 578T breast

Row | SMILES | TGI (DLD-1 colon) [µM] | TGI (DMS 114 small cell lung) [µM] | TGI (DMS 273 small cell lung) [µM] | TGI (HOP-18 NSCLC) [µM] | TGI (KM12 colon) [µM] | TGI (KM20L2 colon) [µM] | TGI (LXFL 529 NSCLC) [µM] | TGI (M19-MEL melanoma) [µM] | TGI (SNB-78 CNS) [µM] | TGI (SW-620 colon) [µM] | TGI (XF 498 CNS) [µM] | TGI (RXF-631 renal) [µM] | TGI (HS 578T breast) [µM]
1 | Cc1ccc2c(c1)SC(c1cc3c(cc1Br)OCO3)S2 (stereo not given) | > 31.6 | > 31.6 | > 31.6 | > 31.6 | > 31.6 | > 31.6 | > 31.6 | > 31.6 | > 31.6 | > 100 | > 100 |  | 
2 | CCOC(=O)[C@H]1Nc2ccc(Cl)cc2[C@H]2OCC[C@@H]12 | > 100 | > 100 | > 100 | > 100 | > 100 | > 100 | > 100 | > 100 | > 100 | > 100 | > 100 | > 100 | 
3 | C[n+]1ccc(-c2cc[n+](C)cc2)cc1 | > 47.2 | > 24.7 | > 38.5 | > 100 | > 92.4 | > 100 | > 53.3 | > 21.6 | > 58.4 | > 100 | 17 |  | 
4 | COC(=O)c1c2c(c(-c3ccccc3)c3c1-c1nc(Cl)ccc1CC3)CCc1ccc(Cl)nc1-2 | > 100 |  |  | > 100 | > 100 | > 100 | > 100 | > 100 | > 100 | > 100 |  | > 100 | 
5 | CC1(Br)C(=O)NC(=O)N(C2CC(N=[N+]=[N-])C(CO)O2)C1N=[N+]=[N-] (stereo not given) | > 100 | > 100 | > 100 |  | > 100 | > 100 | > 100 | > 100 | > 100 | > 100 | > 100 | > 100 | 
6 | NCCCCN(CCCN)Cc1ccccc1 |  |  |  |  | > 100 |  |  |  |  | > 100 |  |  | > 100
7 | CN(C)/C=C(\C(=O)c1ccccc1)n1nc(-c2ccccc2)cc1-c1ccccc1 |  |  |  |  | > 10 |  |  |  |  | > 10 |  |  | > 10
8 | N#Cc1c(N)c2c(c(-c3ccccc3)c1-c1ccccc1)C(=O)N(NC(=O)c1ccccc1)C2=O |  |  |  |  | > 100 |  |  |  |  | > 100 |  |  | > 100
9 | O=C(Nc1nc2ccccc2n1Cc1ccc(Cl)cc1)NC12CC3CC(CC(C3)C1)C2 | > 100 | 90.8 | 34.7 | 85.4 | > 100 | > 100 | 72 | > 100 |  | > 100 | 53.2 |  | 
10 | C/C=C/C(C#N)(Cc1ccccc1)OP1(=O)OC(c2ccccc2)C(C)N1C (stereo not given) |  |  |  |  | > 100 |  |  |  |  | > 100 |  |  | > 100
11 | CN1C(=O)c2c(c3c4ccccc4n(C4OC(CO)C(O)C(O)C4O)c3c3[nH]c4ccccc4c23)C1=O (stereo not given) |  |  |  |  | 11.3 |  |  |  |  | 16.2 |  |  | 21.6
12 | CO[C@@H]1C=C[C@@]23c4cc5c(cc4C(O)N(CC2O)C3C1)OCO5 (stereo not given in full) |  |  |  |  | 17 |  |  |  |  | > 100 |  |  | > 100
13 | COc1ccc([C@H]2C=C(c3cc(F)c(Cl)cc3Cl)NC(=S)N2)cc1 |  |  |  |  | > 100 |  |  |  |  | > 100 |  |  | > 100
14 | Cc1nc2ccccc2c(=O)n1NC(=S)Nc1cccc(Cl)c1 | > 100 |  | > 100 | > 100 | > 100 |  | > 100 | > 100 |  | > 100 |  |  | 
15 | O=C1Nc2cc([N+](=O)[O-])ccc2C(=O)N2CCC[C@@H]12 |  |  |  |  | > 100 |  |  |  |  | > 100 |  |  | > 100
16 | COc1cc2c(cc1OC)C1CCc3ccccc3CN1CC2 (stereo not given) |  |  |  |  | > 100 |  |  |  |  | > 100 |  |  | > 100
17 | c1ccc(N=c2sc3ccccc3sc2=Nc2ccccc2)cc1 |  |  |  |  | 4.25 |  |  |  |  | 3.27 |  |  | 7.51
18 | Cc1c2cccc-2ccc2c1[nH]c1ccc(Br)cc12 |  |  |  |  | 7.08 |  |  |  |  | 25.2 |  |  | 94.3
19 | COc1ccc(/C=C2\SC(c3ccc(OC)cc3)N(NC(=O)Cc3ccccc3)C2=O)cc1 (stereo not given) | > 100 | > 100 | > 100 | > 100 | > 100 |  | > 100 | > 100 |  | > 100 |  |  | 
20 | Cc1cc(S(=O)(=O)n2ccnc2Oc2ccccc2)c(SSc2cc(Cl)c(C)cc2S(=O)(=O)n2ccnc2Oc2ccccc2)cc1Cl |  |  |  |  | > 100 |  |  |  |  | > 100 |  |  | 38.6
